Values quoted from earlier work in publication PMC10035389, “Safety, Tolerability, and Pharmacokinetics of TAK-931, a Cell Division Cycle 7 Inhibitor, in Patients with Advanced Solid Tumors: A Phase I First-in-Human Study” (Cancer Research Communications, 2022).

Tested on: patients with advanced solid tumors
Details: human, in vivo; cited from earlier work

**Q.** For `C[C@@]1(c2ncncc2F)NC(=O)c2cc(-c3cn[nH]c3)ccc21` [LY3143921], which “Rate of drug-related orthostatic hypotension” value is on record?
**A.** 50%
